According to patent publication US20140094402A1, “Lantibiotic NAI-802, Pharmaceutically Acceptable Salts, Compositions and Uses Thereof” ([…] PHARMACEUTICALS, INC., priority 2011, published 2014):
Converted amounts (≈) assume the structure as drawn. Read-outs that look alike come from different tables or passages of the source.

How the values were obtained:
Streptococcus pyogenes [1] = assay: microbe, parasite or virus in culture; conditions: read-out: Minimal Inhibitory Concentration
[2] = tested on: Staphylococcus aureus Met-S ATCC6538P; assay: microbe, parasite or virus in culture
[3] = tested on: Staphylococcus aureus Met-R; assay: microbe, parasite or virus in culture; conditions: read-out: Minimal Inhibitory Concentration
[4] = tested on: Clostridium butyricum and Clostridium perfrigens
Clostridium butyricum [5] = assay: microbe, parasite or virus in culture; conditions: 48 h, read-out: Minimal Inhibitory Concentration
[6] = tested on: Enterococcus faecalis VanS; assay: microbe, parasite or virus in culture
Clostridium difficile [7] = tested on: Clostridium difficile
[8] = tested on: Candida albicans ATCC 90028; assay: microbe, parasite or virus in culture; conditions: ATCC90028, 48 h, read-out: Minimal Inhibitory Concentration
Escherichia coli [9] = assay: microbe, parasite or virus in culture; conditions: read-out: Minimal Inhibitory Concentration
[10] = tested on: Staphylococcus aureus Met-S ATCC19636; assay: microbe, parasite or virus in culture
[11] = tested on: Bacteroides fragilis ATCC 25285; assay: microbe, parasite or virus in culture; conditions: ATCC25285, 48 h, read-out: Minimal Inhibitory Concentration
Moraxella catharralis [12] = tested on: Moraxella catharralis
[13] = tested on: Enterococcus faecium VanS; assay: microbe, parasite or virus in culture
[14] = tested on: Peptstreptococcus asaccharolyticus; assay: organism not typed; conditions: 48 h, read-out: Minimal Inhibitory Concentration
[15] = tested on: Enterococcus faecium VanA; assay: microbe, parasite or virus in culture; conditions: read-out: Minimal Inhibitory Concentration
Clostridium perfrigens [16] = tested on: Clostridium perfrigens
Clostridium difficile [17] = assay: microbe, parasite or virus in culture; conditions: Clostridioides difficile, 48 h
Clostridium perfrigens [18] = assay: microbe, parasite or virus in culture; conditions: 48 h, read-out: Minimal Inhibitory Concentration
[19] = tested on: Enterococcus faecalis VanA; assay: microbe, parasite or virus in culture; conditions: read-out: Minimal Inhibitory Concentration
Moraxella catharralis [20] = assay: microbe, parasite or virus in culture; conditions: read-out: Minimal Inhibitory Concentration
Streptococcus pneumoniae [21] = assay: microbe, parasite or virus in culture; conditions: read-out: Minimal Inhibitory Concentration
Streptococcus pneumoniae [22] = tested on: Streptococcus pneumoniae
Escherichia coli [23] = tested on: Escherichia coli
[24] = tested on: Gram positive bacteria, including staphylococci and streptococci; assay: In vitro antibacterial activity, summary statement; format: cell-based
[25] = tested on: Peptstreptococcus asaccharolyticus; conditions: 48 h
Clostridium butyricum [26] = conditions: 48 h
[27] = tested on: Staphylococcus aureus Met-R
Streptococcus pyogenes [28] = tested on: Streptococcus pyogenes
[29] = tested on: Enterococcus faecalis VanA
[30] = tested on: Candida albicans ATCC 90028; conditions: ATCC 90028, 48 h
[31] = tested on: Bacteroides fragilis ATCC 25285; conditions: ATCC 25285, 48 h
[32] = tested on: Enterococcus faecium VanA
[33] = tested on: Staphylococcus aureus Met-S ATCC6538P; conditions: ATCC6538
[34] = tested on: Enterococcus faecium VanS
[35] = tested on: Enterococcus faecalis VanS
[36] = range over codes 4013, 1365, 4015

## CN[C@H](CC(C)C)C(=O)N[C@H]1C(=O)N[C@@H](CC(N)=O)C(=O)N[C@H]2C(=O)N[C@H]3C(=O)N[C@H](C(=O)N[C@H](C(=O)O)c4cc(O)cc(O)c4-c4cc3ccc4O)[C@H](O)c3ccc(c(Cl)c3)Oc3cc2cc(c3O[C@@H]2O[C@H](CO)[C@@H](O)[C@H](O)[C@H]2O[C@H]2C[C@](C)(N)[C@H](O)[C@H](C)O2)Oc2ccc(cc2Cl)[C@H]1O [VA, vancomycin]
Streptococcus pyogenes [1]
  MIC: 0.25 µg/mL (≈ 0.173 µM)
[2]; read-out: Minimal Inhibitory Concentration, code 100, +30% bovine serum
  MIC: 1 µg/mL (≈ 0.69 µM)
[2]; read-out: Minimal Inhibitory Concentration, code 100, CAMHB
  MIC: 0.25 µg/mL (≈ 0.173 µM)
[3]
  MIC: 0.5 µg/mL (≈ 0.345 µM)
[4]
  Minimal Inhibitory Concentration, range: 1 mg/L
Clostridium butyricum [5]
  MIC: 1 µg/mL (≈ 0.69 µM)
[6]; read-out: Minimal Inhibitory Concentration, code 559
  MIC: 1 µg/mL (≈ 0.69 µM)
[6]; read-out: Minimal Inhibitory Concentration, code 559, +30% bovine serum
  MIC: 2 µg/mL (≈ 1.38 µM)
Clostridium difficile [7]; [36]
  Minimal Inhibitory Concentration, range: 0.25 to 0.5 mg/L
[8]
  MIC: > 128 µg/mL
Escherichia coli [9]
  MIC: > 128 µg/mL
[10]; ATCC19636, read-out: Minimal Inhibitory Concentration, code 819, +30% bovine serum
  MIC: 1 µg/mL (≈ 0.69 µM)
[10]; ATCC19636, read-out: Minimal Inhibitory Concentration, code 819, CAMHB
  MIC: 0.5 µg/mL (≈ 0.345 µM)
[11]
  MIC: 32 µg/mL (≈ 22.1 µM)
Moraxella catharralis [12]; code 3294
  Minimal Inhibitory Concentration: >128 mg/L
[13]; read-out: Minimal Inhibitory Concentration, code 568
  MIC: 2 µg/mL (≈ 1.38 µM)
[13]; read-out: Minimal Inhibitory Concentration, code 568, +30% bovine serum
  MIC: 4 µg/mL (≈ 2.76 µM)
[14]
  MIC: 0.5 µg/mL (≈ 0.345 µM)
[15]
  MIC: > 128 µg/mL
Clostridium perfrigens [16]; code 3607, anaerobic, 48 hours
  Minimal Inhibitory Concentration: 1 mg/L
Clostridium difficile [17]; read-out: Minimal Inhibitory Concentration, code 1365, anaerobic
  MIC: 0.5 µg/mL (≈ 0.345 µM)
Clostridium difficile [17]; read-out: Minimal Inhibitory Concentration, code 4013, anaerobic
  MIC: 0.25 µg/mL (≈ 0.173 µM)
Clostridium difficile [17]; read-out: Minimal Inhibitory Concentration, code 4015, anaerobic
  MIC: 0.25 µg/mL (≈ 0.173 µM)
Clostridium perfrigens [18]
  MIC: 1 µg/mL (≈ 0.69 µM)
[19]
  MIC: > 128 µg/mL
Moraxella catharralis [20]
  MIC: > 128 µg/mL
Streptococcus pneumoniae [21]
  MIC: 0.5 µg/mL (≈ 0.345 µM)

## CC[C@H](C)[C@@H]1NC(=O)C2NC(=O)[C@H](CC(C)C)NC(=O)C(NC(=O)C3CSCC(NC(=O)[C@H](C)N)C(=O)N[C@@H](CO)C(=O)NCC(=O)N[C@@H](Cc4c[nH]c5ccccc45)C(=O)N[C@@H](C(C)C)C(=O)N3)C(C)SCC(NC(=O)[C@H](CCC(=O)O)NC1=O)C(=O)NCC(=O)NC1C(=O)N[C@@H](C(C)C)C(=O)N[C@@H]([C@@H](C)CC)C(=O)NC(CSC2C)C(=O)N[C@@H](C)C(=O)NC(C(=O)N[C@@H](CCCNC(=N)N)C(=O)NCCN)C[S+]([O-])C1C (some centres unmarked) [NAI-802 monoamide with ethylendiamine]
Streptococcus pneumoniae [22]
  Minimal Inhibitory Concentration: 2 mg/L
Escherichia coli [23]
  Minimal Inhibitory Concentration: >128 mg/L
[24]; against certain organisms
  antibacterial activity compared to native NAI-802: more antibacterial active
[25]
  Minimal Inhibitory Concentration: 0.5 mg/L
[4]
  Minimal Inhibitory Concentration, range: 1 to 8 mg/L
Clostridium butyricum [26]
  Minimal Inhibitory Concentration: 1 mg/L
[27]
  Minimal Inhibitory Concentration: 8 mg/L
Clostridium difficile [7]; code 4013, anaerobic, 48 hours
  Minimal Inhibitory Concentration: ≦0.125 mg/L
Clostridium difficile [7]; [36]
  Minimal Inhibitory Concentration, range: ≦0.125-1 mg/L
Streptococcus pyogenes [28]; code 49, Todd Hewitt broth
  Minimal Inhibitory Concentration: ≦0.125 mg/L
Moraxella catharralis [12]
  Minimal Inhibitory Concentration: 32 mg/L
[29]
  Minimal Inhibitory Concentration: 32 mg/L
[30]
  Minimal Inhibitory Concentration: >128 mg/L
[31]
  Minimal Inhibitory Concentration: >128 mg/L
[32]
  Minimal Inhibitory Concentration: 16 mg/L
[33]
  Minimal Inhibitory Concentration: 4 mg/L
[34]
  Minimal Inhibitory Concentration: 32 mg/L
[35]
  Minimal Inhibitory Concentration: 32 mg/L

## CC[C@H](C)[C@@H]1NC(=O)C2NC(=O)[C@H](CC(C)C)NC(=O)C(NC(=O)C3CSCC(NC(=O)[C@H](C)N)C(=O)N[C@@H](CO)C(=O)NCC(=O)N[C@@H](Cc4c[nH]c5ccccc45)C(=O)N[C@@H](C(C)C)C(=O)N3)C(C)SCC(NC(=O)[C@H](CCC(=O)O)NC1=O)C(=O)NCC(=O)NC1C(=O)N[C@@H](C(C)C)C(=O)N[C@@H]([C@@H](C)CC)C(=O)NC(CSC2C)C(=O)N[C@@H](C)C(=O)NC(C(=O)N[C@@H](CCCNC(=N)N)C(=O)O)C[S+]([O-])C1C (some centres unmarked) [NAI-802]
Streptococcus pneumoniae [22]
  Minimal Inhibitory Concentration: 8 mg/L
Escherichia coli [23]
  Minimal Inhibitory Concentration: >128 mg/L
[24]; including staphylococci and streptococci
  antibacterial activity against Gram positive bacteria: antibacterial activity against Gram positive bacteria
[25]
  Minimal Inhibitory Concentration: 1 mg/L
[4]
  Minimal Inhibitory Concentration, range: 0.25 to 2 mg/L
Clostridium butyricum [26]
  Minimal Inhibitory Concentration: 0.25 mg/L
[27]
  Minimal Inhibitory Concentration: 32 mg/L
Clostridium difficile [7]
  Minimal Inhibitory Concentration, range: 0.25 to 2 mg/L
Streptococcus pyogenes [28]
  Minimal Inhibitory Concentration: 0.5 mg/L
Moraxella catharralis [12]
  Minimal Inhibitory Concentration: 64 mg/L
[29]
  Minimal Inhibitory Concentration: 128 mg/L
Clostridium perfrigens [16]; 48 h
  Minimal Inhibitory Concentration: 2 mg/L
[30]
  Minimal Inhibitory Concentration: >128 mg/L
[31]
  Minimal Inhibitory Concentration: >128 mg/L
[32]
  Minimal Inhibitory Concentration: 128 mg/L
[34]
  Minimal Inhibitory Concentration: >128 mg/L
[35]
  Minimal Inhibitory Concentration: 128 mg/L
